Laboratory results as given in US10556865B2, “Synergistic herbicidal composition containing certain pyridine or pyrimidine carboxylic acids and certain cereal and rice herbicides” (Dow AgroSciences, LLC, priority 2007, dated 2020).
Several values for one entry are separate records, joined by “and”; a condition that tells them apart may be missing. Equal entries are not always repeated.

Assays:
Format in all cases: in vivo
[1] = system: Ipomoea hederacea (L.) JACQ. (IPOHE); assay: Postemergence herbicidal mixtures for weed control in direct seeded rice (greenhouse, visual % injury after 3 weeks)
[2] = system: Polygonum pensylvanicum L. (POLPY); assay: Postemergence herbicidal mixtures for weed control in direct seeded rice (greenhouse, visual % injury)
[3] = system: Polygonum persicaria L. (POLPE); assay: as above
[4] = system: Leptochloa chinensis (L.) NEES (LEFCH); assay: as above
[5] = system: Cyperus esculentus L. (CYPES); assay: as above
[6] = system: Cyperus iria L. (CYPIR); assay: as above
[7] = system: Echinochloa species (ECHSS); assay: Herbicidal mixtures for weed control in transplanted paddy rice (in-water application, visual % injury after 3 weeks)
Method: (§1) Weed seeds or nutlets of the desired test plant species were planted in puddled soil (mud) prepared by mixing a non-sterilized mineral soil (28 percent silt, 18 percent clay, and 54 percent sand, with a pH of about 7.3 to 7.8 and an organic matter content of about 1.0 percent) and water at a ratio of 100 kilograms (kg) of soil to 19 L of water. The prepared mud was dispensed in 250 mL aliquots into 480 mL non-perforated plastic pots with a surface area of 91.6 square centimeters leaving a headspace of 3 centimeters in each pot. Rice seeds were planted in Sun Gro MetroMix® 306 planting mixture, which typically has a pH of 6.0 to 6.8 and an organic matter content of about 30 percent, in plastic plug trays. Seedlings at the second or third leaf stage of growth were transplanted into 650 mL of mud contained in 960 mL non-perforated plastic pots with a surface area of 91.6 cm^2 4 days prior to herbicide application. The paddy was created by filling the 3 centimeter headspace of the pots with water. When required to ensure good germination and healthy plants, a fungicide treatment and/or other chemical or physical treatment was applied. The plants were grown for 4-14 days in a greenhouse with an approximate 14 hr photoperiod which was maintained at about 29° C. during the day and 26° C. during the night. Nutrients were added as Osmocote (17:6:10, N:P:K+minor nutrients) at 2 g per cup. Water was added on a regular basis to maintain the paddy flood, and supplemental lighting was provided with overhead metal halide 1000-Watt lamps as necessary. The plants were employed for testing when they reached the second or third true leaf stage.
(§2) Treatments consisted of esters or salts of compound A, compound C, or compound D and various herbicidal components alone and in combination. For technical grade compounds, a weighed amount, determined by the highest rate to be tested, was placed in an individual 120 mL glass vial and was dissolved in 20 mL of acetone to obtain concentrated stock solutions. […] The concentrated stock solutions obtained were diluted with 20 mL of an aqueous mixture containing 2.5% Agri-dex crop oil concentrate (v/v). For formulated compounds, a measured amount, determined by the highest rate to be tested, was placed in an individual 120 mL glass vial and was dissolved in 20 mL of 2.5% (v/v) Agri-dex crop oil concentrate to obtain concentrated stock solutions. The concentrated stock solutions obtained were diluted with 20 mL of acetone. Applications were made by injecting an appropriate amount of the stock solution into the aqueous layer of the paddy. Control plants were treated in the same manner with the solvent blank. All treated plant material received the same concentration of acetone and crop oil concentrate.
(§3) Forms of compounds A, C, and D were applied on an acid equivalent basis. Other herbicidal components were applied on an active ingredient basis and included acetolactate synthase (ALS)-inhibiting herbicides penoxsulam (triazolopyrimidine chemical class) applied as Grasp SC, […] (sulfonylurea chemical class) applied as Sirius G, and bensulfuron-methyl (sulfonylurea chemical class) applied as Londax; acetyl CoA carboxylase (ACCase) inhibiting herbicides cyhalofop-butyl applied as Clincher G and fenoxaprop-p-ethyl applied as Ricestar HT; auxinic herbicide quinclorac applied as Facet 75 DF; phytoene desaturase inhibiting herbicide norflurazon; and p-hydroxyphenylpyruvate dioxygenase (HPPD) inhibiting herbicide sulcotrione applied as Mikado.
(§4) The treated plants and control plants were placed in a greenhouse as described above and water was added as needed to maintain a paddy flood. After 3 weeks the condition of the test plants as compared with that of the untreated plants was determined visually and scored on a scale of 0 to 100 percent where 0 corresponds to no injury and 100 corresponds to complete kill.

[8] = system: Leptochloa chinensis (L.) NEES (LEFCH); assay: Herbicidal mixtures for weed control in transplanted paddy rice (in-water application, visual % injury)
Method: as §1, §2, §3, §4

[9] = system: Scirpus maritimus L. (SCPMA); assay: Postemergence herbicidal mixtures for weed control in direct seeded rice (greenhouse, visual % injury)
[10] = system: Ischaemum rugosum SALISB. (ISCRU); assay: as above
[11] = system: Cyperus species (CYPSS); assay: Herbicidal mixtures for weed control in transplanted paddy rice (in-water application, visual % injury)
Method: as §1, §2, §3, §4

[12] = system: Eleocharis kuroguwai OHWI (ELOKU); assay: as above
Method: as §1, §2, §3, §4

[13] = system: Fimbristylis miliacea (L.) VAHL (FIMMI); assay: as above
Method: as §1, with “When required to ensure good germination and healthy plants, a fungicide treatment and/or other chemical or physical treatment was applied.” left out
as §2, §3, §4

COC(=O)c1nc(-c2ccc(Cl)c(OC)c2Cl)cc(N)c1Cl [Compound C Methyl]
% Injury IPOHE Ob ([1]; alone 4.38 g/ha): 40%
% Injury IPOHE Ob ([1]; alone 17.5 g/ha): 50% and 40%
% Injury IPOHE Ob ([1]; alone 70 g/ha): 85%
% Injury POLPY Ob ([2]; alone 8.75 g/ha): 10%
% Injury POLPY Ob ([2]; alone 17.5 g/ha): 15%
% Injury POLPE Ob ([3]; alone 35 g/ha): 85%
% Injury POLPE Ob ([3]; alone 70 g/ha): 100%
% Injury LEFCH Ob ([4]; alone 4.38 g/ha): 0%
% Injury CYPES Ob ([5]; alone 17.5 g/ha): 65% and 100%
% Injury CYPIR Ob ([6]; alone 8.75 g/ha): 25%
% Injury CYPIR Ob ([6]; alone 35 g/ha): 40%
% Injury Ob ([7]; ECHCG, 4.38 g/ha alone): 0%
% Injury Ob ([7]; ECHCG, 8.75 g/ha alone): 0%
% Injury Ob ([7]; ECHCG, 17.5 g/ha alone): 0%
% Injury Ob ([7]; ECHCG, 35 g/ha alone): 10%
% Injury Ob ([8]; 17.5 g/ha alone): 0%
% Injury Ob ([8]; 35 g/ha alone): 0%
% Injury Ob ([8]; 70 g/ha alone): 0%

CCC(=O)Nc1ccc(Cl)c(Cl)c1 [Propanil]
% Injury IPOHE Ob ([1]; alone 560 g/ha): 10%
% Injury IPOHE Ob ([1]; alone 1120 g/ha): 10%
% Injury POLPE Ob ([3]; alone 560 g/ha): 10%
% Injury POLPE Ob ([3]; alone 1120 g/ha): 40%
% Injury at 11 DAA CYPIR Ob ([6]; alone 560 g/ha): 10%
% Injury at 11 DAA CYPIR Ob ([6]; alone 1120 g/ha): 10%
% Injury at 21 DAA CYPIR Ob ([6]; alone 560 g/ha): 0%
% Injury at 21 DAA CYPIR Ob ([6]; alone 1120 g/ha): 0%
% Injury at 11 DAA SCPMA Ob ([9]; alone 560 g/ha): 30%
% Injury at 11 DAA SCPMA Ob ([9]; alone 1120 g/ha): 30%
% Injury at 21 DAA SCPMA Ob ([9]; alone 560 g/ha): 0%
% Injury at 21 DAA SCPMA Ob ([9]; alone 1120 g/ha): 0%

CCOC(=O)C(Cl)Cc1cc(-n2nc(C)n(C(F)F)c2=O)c(F)cc1Cl (stereo not drawn) [Carfentrazone-ethyl]
% Injury POLPE Ob ([3]; alone 14 g/ha): 0%
% Injury 11 DAA CYPES Ob ([5]; alone 14 g/ha): 10%
% Injury 11 DAA CYPES Ob ([5]; alone 28 g/ha): 10%
% Injury 21 DAA CYPES Ob ([5]; alone 14 g/ha): 0%
% Injury 21 DAA CYPES Ob ([5]; alone 28 g/ha): 0%
% Injury CYPES Ob ([5]; alone 56 g/ha): 10%
% Injury CYPES Ob ([5]; alone 112 g/ha): 0%
% Injury CYPIR Ob ([6]; alone 14 g/ha): 0%
% Injury CYPIR Ob ([6]; alone 28 g/ha): 0%

CCCCOC(=O)c1nc(-c2ccc(Cl)c(OC)c2F)cc(N)c1Cl [Compound A n-Butyl]
% Injury IPOHE Ob ([1]; alone 8.75 g/ha): 35%
% Injury IPOHE Ob ([1]; alone 17.5 g/ha): 30%
% Injury POLPY Ob ([2]; alone 8.75 g/ha): 40%
% Injury POLPY Ob ([2]; alone 17.5 g/ha): 90%
% Injury POLPE Ob ([3]; alone 4.38 g/ha): 40%
% Injury POLPE Ob ([3]; alone 8.75 g/ha): 60%
% Injury ISCRU Ob ([10]; alone 35 g/ha): 20%
% Injury ISCRU Ob ([10]; alone 70 g/ha): 50%
% Injury LEFCH Ob ([4]; alone 8.75 g/ha): 10%
% Injury LEFCH Ob ([4]; alone 17.5 g/ha): 30%
% Injury LEFCH Ob ([4]; alone 35 g/ha): 60%
% Injury 11 DAA CYPES Ob ([5]; alone 35 g/ha): 50%
% Injury 11 DAA CYPES Ob ([5]; alone 70 g/ha): 75%
% Injury 21 DAA CYPES Ob ([5]; alone 35 g/ha): 90%
% Injury 21 DAA CYPES Ob ([5]; alone 70 g/ha): 100%
% Injury CYPES Ob ([5]; alone 8.75 g/ha): 50%
% Injury CYPES Ob ([5]; alone 17.5 g/ha): 85% and 90%
% Injury at 11 DAA CYPIR Ob ([6]; alone 35 g/ha): 60%
% Injury at 11 DAA CYPIR Ob ([6]; alone 70 g/ha): 90%
% Injury at 21 DAA CYPIR Ob ([6]; alone 35 g/ha): 60%
% Injury at 21 DAA CYPIR Ob ([6]; alone 70 g/ha): 100%
% Injury at 11 DAA SCPMA Ob ([9]; alone 35 g/ha): 30%
% Injury at 11 DAA SCPMA Ob ([9]; alone 70 g/ha): 100%
% Injury at 21 DAA SCPMA Ob ([9]; alone 35 g/ha): 50%
% Injury at 21 DAA SCPMA Ob ([9]; alone 70 g/ha): 100%

COC(=O)c1ccccc1CS(=O)(=O)NC(=O)Nc1nc(OC)cc(OC)n1 [Bensulfuron-methyl]
% Injury LEFCH Ob ([4]; alone 4.38 g/ha): 20%
% Injury LEFCH Ob ([4]; alone 8.75 g/ha): 0%
% Injury Ob ([7]; ECHCG, 70 g/ha alone): 45% and 70%
% Injury Ob ([7]; ECHCO, 35 g/ha alone): 20%
% Injury Ob ([7]; ECHCO, 70 g/ha alone): 30%
% Injury Ob ([11]; CYPES, 4.38 g/ha alone): 40%
% Injury Ob ([11]; CYPES, 8.75 g/ha alone): 50%
% Injury Ob ([12]; 35 g/ha alone): 20%
% Injury Ob ([12]; 70 g/ha alone): 70%
% Injury Ob ([8]; 35 g/ha alone): 15%
% Injury Ob ([8]; 70 g/ha alone): 30%
% Injury Ob ([13]; 35 g/ha alone): 10%
% Injury Ob ([13]; 70 g/ha alone): 50%

COc1cnc(OC)n2nc(NS(=O)(=O)c3c(OCC(F)F)cccc3C(F)(F)F)nc12 [Penoxsulam]
% Injury IPOHE Ob ([1]; alone 4.38 g/ha): 70%
% Injury IPOHE Ob ([1]; alone 8.75 g/ha): 60%
% Injury LEFCH Ob ([4]; alone 17.5 g/ha): 0%
% Injury LEFCH Ob ([4]; alone 35 g/ha): 0%
% Injury CYPES Ob ([5]; alone 17.5 g/ha): 10%
% Injury Ob ([7]; ECHCG, 4.38 g/ha alone): 70%
% Injury Ob ([11]; CYPES, 8.75 g/ha alone): 40%
% Injury Ob ([11]; CYPIR, 8.75 g/ha alone): 70%
% Injury Ob ([12]; 8.75 g/ha alone): 0%
% Injury Obs ([12]; 8.75 g/ha alone): 0%
% Injury Ob ([8]; 8.75 g/ha alone): 0%
% Injury Ob ([8]; 17.5 g/ha alone): 15%
% Injury Ob ([8]; 35 g/ha alone): 20%
